Experiments:
[1] = system: Mice with Alcoholic Liver Injury; assay: Protective effect on alcoholic liver injury in mice (serum ALT, AST, TG); format: in vivo; conditions: 25 days, ethanol 3 g/kg/day
Protocol: The compound of formula (I) was prepared by the method of example 7. In order to study its protective effect on alcoholic liver injury in mice, the following animal model was designed.
Three-week-old 30-35 g SPF male mice were randomly divided into normal control group, model group, low-dose group, high-dose group and tiopronin positive control group after adaptive feeding for 3 days. The normal control group and model group were fed with basic feed every day; low dose group and high dose group were fed with basic diet every day and were given the compound of formula (I) of 10 mg/kg/day and 50 mg/kg/day, respectively; tiopronin positive control group was fed with basic feed and 50 mg/kg/day tiopronin. Ethanol 3 g/kg/day (0.01 mL/g) was given to the model group, low dose group, high dose group and tiopronin positive control group. The normal control group was given distilled water of the same volume. After 25 days, fasting for 2 hours after the last administration, glutamic pyruvic transaminase (ALT), glutamic oxaloacetic transaminase (AST) and triglyceride (TG) were measured in serum by decapitation.

[2] = DPPH radical scavenging activity assay; format: biochemical; conditions: for DPPH Clearance rate: n = 3
Source text: 2,2-Diphenyl-1-picryl hydrazyl (DPPH) is an organic compound composed of a stable organic radical. In the DPPH molecule, due to the presence of multiple electron-withdrawing —NO2 and large π bonds of the benzene ring, nitrogen free radical is stabilized. Its methanol solution is purple and has a maximum absorption peak at 517 nm. After the addition of an antioxidant, DPPH captures an electron to be paired with the free electron, and the purple fades and turns into a yellow substance. The absorption at 517 nm disappears, and the degree of fading is quantitatively related to the number of electrons it captures. Based on this principle, a spectrophotometer is used to detect the change of the absorbance of the DPPH radical and the sample solution, and the ability of the sample to provide hydrogen atoms and scavenge free radicals can be measured.
Preparation of DPPH solution: measuring exact amount of 2,2-diphenyl-1-picryl hydrazyl (DPPH) and dissolving in toluene to prepare a 0.2 mmol/L DPPH solution, stored at 0° C. in dark.
Preparation of test solution: Vc (vitamin C, positive control), compound of formula (I) (sample), silibinin (control) and lipoic acid (control). The sample solution was subjected to gradient dilution with toluene, and three sets of controls were separately dissolved in a test tube with a certain amount of toluene to prepare the same concentration gradient as the sample.
Sample liquid absorbance measurement: Take 2 mL of sample solution (Table 2 Vc, B, C), add 2 mL of DPPH solution with concentration of 2×10^−4 mol/L, mix and react in the dark at room temperature for 30 min, adjust to zero with toluene, and measure at 517 nm. The absorbance Ai was simultaneously measured for the absorbance Aj of 2 mL of toluene mixed with 2 mL of the sample solution and the absorbance Ao of 2 mL of DPPH solution mixed with 2 mL of toluene (the experimental results are shown in Table 3).
clearance rate (%)=[1−(Ai−Aj)/Ao]*100% Clearance calculation: […]

SMILES | ALT ([1]; 50 mg/kg/day) | AST ([1]; 50 mg/kg/day) | TG ([1]; 50 mg/kg/day) | DPPH Clearance rate ([2]; 1.76 ppm) | DPPH Clearance rate ([2]; 8.80 ppm) | DPPH Clearance rate ([2]; 21.12 ppm) | DPPH Clearance rate ([2]; 42.24 ppm) | DPPH Clearance rate ([2]; 79.20 ppm) | DPPH Clearance rate ([2]; 112.64 ppm) | DPPH Clearance rate ([2]; 281.60 ppm) | DPPH Clearance rate ([2]; 492.80 ppm) | DPPH Clearance rate ([2]; 792.00 ppm) | DPPH Clearance rate ([2]; 915.20 ppm) | scavenging ability compared with silibinin (B) and lipoic acid (C) alone ([2]; DPPH free radicals, at the same concentration) | scavenging ability compared with the positive control Vc group ([2]; DPPH radical) | highest scavenging rate of DPPH radical ([2]; in the determined concentration range) | ALT ([1]; 10 mg/kg/day) | AST ([1]; 10 mg/kg/day) | TG ([1]; 10 mg/kg/day)
CC(S)C(=O)NCC(=O)O (centres unmarked) [Tiopronin, tiopronin, reference compound] | 65.32 ± 8.79 U/L | 141.37 ± 18.75 U/L | 1.156 ± 0.33 mmol/L | – | – | – | – | – | – | – | – | – | – | – | – | – | – | – | –
O=C(O)CCCCC1CCSS1 (centres unmarked) [C, Lipoic acid] | – | – | – | 7.27% | 8.52% | 16.42% | 23.54% | 36.45% | 41.58% | 54.23% | 67.82% | 72.01% | 73.69% | – | – | – | – | – | –
COc1cc(C2Oc3cc([C@H]4Oc5cc(O)cc(O)c5C(=O)[C@@H]4O)ccc3OC2COC(=O)CCCCC2CCSS2)ccc1O (stereo partly drawn) [Compound of Formula (I), (3-(4-hydroxy-3-methoxyphenyl)-6-((2R,3R)-3,5,7-trihydroxy-4-oxochroman-2-yl)-2,3-dihydrobenzo[b][1,4]dioxin-2-yl)methyl 5-(1,2-dithiolan-3-yl)pentanoate] | 57.21 ± 2.93 U/L | 134.56 ± 6.57 U/L | 0.873 ± 0.35 mmol/L | 12.28% | 19.80% | 32.16% | 43.55% | 69.42% | 78.95% | 81.21% | 86.70% | 90.06% | 93.52% | better | slightly weaker | 93.52% | 61.72 ± 10.37 U/L | 139.84 ± 18.95 U/L | 0.902 ± 0.19 mmol/L

Reference: patent publication US11306076B2, “Silibinin lipoic acid ester with hepatoprotective activity and a method of preparing the same” (XI'AN TAIKOMED PHARMACEUTICAL TECHNOLOGY CO., LTD., priority 2020, dated 2022)
